Experimental data taken from patent US10201610B2, “Interference peptides and use thereof” (The University of Western Australia, priority 2014, dated 2019).
Ends that are not written are not given here.

Tests used:
[1] = test system: caspase 3 activity in SUM149PT cells; assay: Caspase-3 colorimetric assay in SUM149PT cells; type: cell-based, human; conditions: 8 hours, compared with non-treated or iPep624ΔHEX-treated cells
Source text: The EN1-iPeps and iPep controls were first tested in SUM149PT cells carrying high EN1 expression. Cells were first treated with a full-length 29-mer peptide (iPep624) comprising the N-terminal, less conserved amino acid sequences, the hexamotif, and the C-terminal tail. As a control, the inventors generated the iPep624ΔHEX in which the hexamotif was mutated from the wild type (wt) WPAWVY (SEQ ID NO: 13) to the GAAGAG (SEQ ID NO: 15) sequence. These mutations were expected to dramatically abolish the activity of the peptide. Both peptides were included in the culture medium of the basal cancer cells in increasing (0-100 μM) concentrations and incubated for 8 hours at 37° C. Treated cells were first analyzed using the Cell Titer Glo assay, which monitors metabolic viability. […] This calculated value of IC50 is in the range of concentrations observed with other peptides delivered with CPPs.
Detection of apoptosis was performed with a Caspase-3 colorimetric assay (Sigma-Aldrich, St Louis, Mo.) according to the manufacturer's instructions.

[2] = biological target: T1, Glutamyl-Prolyl tRNA synthetase (EPRS) (Homo sapiens, UniProt P07814); assay: Affinity capture immunoprecipitation with biotinylated iPeps, EPRS detection; type: binding; conditions: biotinylated iPep as bait, versus control peptide iPep624ΔHEX
T1 construct: endogenous in cells; host or cells: SUM149PT total protein extract
Source text: To investigate the binding partners of the iPeps in cancer cells, the inventors carried out affinity capture immunoprecipitation experiments using the biotinylated active iPep624 as bait, and the iPep624ΔHEX as negative control. They used total protein extracts from SUM149PT cells to capture endogenous proteins able to bind these peptides in vitro. Elutes were loaded in a 1D-SDS PAGE gel to visualize the enrichment of individual proteins. […] In addition, overexpression of EN1 cDNA into two different breast cell lines confirmed the interaction of the full length EN1 with the endogenous EPRS inside the cells (FIG. 6c). […]
The iPep624 and iPep624ΔHEX were coupled to a C-terminal biotin and immobilized in streptavidin-coated beads. […] Detection was performed with ECL Detection System (GE Healthcare) and quantitated using Image J v1.46 (ImageJ, NCBI).
Proteins were eluted from the streptavidin beads coated with biotinylated iPep624 or iPep624ΔHEX, resuspended with SDS PAGE sample buffer and applied to SDS-PAGE (10% acrylamide; FIG. 10). Gels were stained with Coomassie brilliant blue and select bands unique to the EN1 immunoprecipitates were excised, digested with trypsin, and the peptides were extracted and analyzed using a MALDI-TOF/TOF mass spectrometer (AB Sciex 4800 Plus). […]

[3] = test system: SUM149PT cells overexpressing the EN1 cDNA (SUM149PT-EN1); assay: Cell Titer Glo cell viability assay in SUM149PT cells overexpressing the EN1 cDNA; type: cell-based, human; conditions: iPep624 72 hours
Protocol: In the neural system it has been proposed that EN1 protects neurons from mitochondrial complex I insults. Likewise, the inventors investigated whether EN1 could play a similar role in the basal-like breast cancer cell lines. The EN1 cDNA was overexpressed in SUM149PT cells using a lentiviral vector, and the transduced cells were treated with increasing concentrations of rotenone, a mitochondrial complex I toxin, and taxol, a […].
Plasmids expressing the EN1 cDNA (Genecopoeia, vector EX-T1021-Lv07) or EN1 shRNAs (Open Biosystems, pLKO-EN1) were transfected with Gagpol-, VSVG-, and RSV-REV-coding plasmids in HEK 293T cells using Lipofectamine and Plus Reagent cationic lipids (Invitrogen, Carlsbad, Calif.) and transduction of breast cells was performed as described in Beltran, A. S. et al. Breast Cancer Res 13, R94 (2011).
All peptides were synthetized at the UNC High-Throughput Peptide Synthesis and Array Facility at UNC. Taxol, Rotenone and Halofuginone (Sigma-Aldrich, St Louis, Mo.) were dissolved in DMSO. A total of […] or 1×10^3 breast cells for peptide and drug treatment respectively, were seeded in 96-well plates. Cells were exposed for 8 hours to the peptide and 48 to 72 hours for drug treatment. The cell viability after peptide/drug treatment was assayed with the Cell Titer Glo (CTG) assay (Promega, Madison, Wis., USA).

T1 sequence (P07814 whole entry): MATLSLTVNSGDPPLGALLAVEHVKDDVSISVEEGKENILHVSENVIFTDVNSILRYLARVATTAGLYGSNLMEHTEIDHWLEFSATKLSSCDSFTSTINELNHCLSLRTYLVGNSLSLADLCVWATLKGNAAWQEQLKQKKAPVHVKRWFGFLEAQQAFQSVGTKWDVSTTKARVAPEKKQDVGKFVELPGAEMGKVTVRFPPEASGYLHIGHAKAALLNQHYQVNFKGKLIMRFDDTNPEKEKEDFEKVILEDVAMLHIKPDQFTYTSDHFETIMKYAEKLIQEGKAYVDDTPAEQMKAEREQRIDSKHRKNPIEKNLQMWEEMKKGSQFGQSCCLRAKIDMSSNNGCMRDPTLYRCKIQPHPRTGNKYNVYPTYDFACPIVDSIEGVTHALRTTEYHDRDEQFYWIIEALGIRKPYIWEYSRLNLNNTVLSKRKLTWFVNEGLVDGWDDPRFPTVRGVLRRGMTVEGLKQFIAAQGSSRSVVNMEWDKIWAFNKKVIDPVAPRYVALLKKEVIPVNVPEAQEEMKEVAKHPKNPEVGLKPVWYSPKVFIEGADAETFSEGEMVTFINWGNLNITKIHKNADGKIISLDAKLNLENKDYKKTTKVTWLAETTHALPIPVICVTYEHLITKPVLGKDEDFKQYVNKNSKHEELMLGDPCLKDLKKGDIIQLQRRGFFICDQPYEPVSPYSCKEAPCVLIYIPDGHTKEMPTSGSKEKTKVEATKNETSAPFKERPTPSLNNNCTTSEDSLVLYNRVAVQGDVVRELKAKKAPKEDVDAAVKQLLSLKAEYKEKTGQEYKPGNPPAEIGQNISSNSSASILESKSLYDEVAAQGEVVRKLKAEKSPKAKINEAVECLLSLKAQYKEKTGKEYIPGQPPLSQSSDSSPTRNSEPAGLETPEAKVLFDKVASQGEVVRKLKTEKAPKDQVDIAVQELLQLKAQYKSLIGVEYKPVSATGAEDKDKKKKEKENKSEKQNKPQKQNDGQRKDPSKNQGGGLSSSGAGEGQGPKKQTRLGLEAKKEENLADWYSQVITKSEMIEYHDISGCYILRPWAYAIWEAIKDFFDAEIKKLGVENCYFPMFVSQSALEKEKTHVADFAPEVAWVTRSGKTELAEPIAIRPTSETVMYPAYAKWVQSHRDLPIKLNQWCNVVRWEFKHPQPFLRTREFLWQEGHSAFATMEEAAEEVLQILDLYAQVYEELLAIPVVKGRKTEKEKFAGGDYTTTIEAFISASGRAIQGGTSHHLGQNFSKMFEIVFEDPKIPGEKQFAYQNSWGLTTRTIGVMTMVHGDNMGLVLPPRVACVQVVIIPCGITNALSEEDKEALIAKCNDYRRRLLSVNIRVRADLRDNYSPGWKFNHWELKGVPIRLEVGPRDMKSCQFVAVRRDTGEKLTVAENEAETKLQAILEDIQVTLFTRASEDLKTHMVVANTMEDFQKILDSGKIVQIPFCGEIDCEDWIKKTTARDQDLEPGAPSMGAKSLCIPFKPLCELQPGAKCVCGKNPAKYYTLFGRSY

KKKRKVTDSQQPLVWPAWVYCTRYSDRPS [iPep624] was tested, and the “caspase 3 activity” value [1] was “significantly higher”, the “binding of EPRS from SUM149PT extracts” value [2] was “preferential binding interaction” and the “cell viability defect after ectopic transfection of the EN1 cDNA” value [3] was “rescued”.
